Assay results as given in paper PMC9399405, “CD8 T cell function and cross-reactivity explored by stepwise increased peptide-HLA versus TCR affinity” (Frontiers in Immunology, 2022).

Tested on: HLA-A2
Test: Blue peptide (Cy5-labeled HBVc) kinetic and isotherm determination
Type: binding, human
Experimental: In short, for kon measurements on T2 (HLA-A2^pos) and C1R-A3 (HLA-A2^neg) cells, baseline Cy5 cell auto-fluorescence was recorded for 30s with an LSRII instrument. Titrated amounts of Cy5-labeled HBVc blue peptide (from 1 pM to 1 uM final concentration) were then added to the tube and association of the blue peptide to HLA-A2 was recorded for 5 minutes. For koff dissociation assays, 2x10^6 HLA-A2^pos (T2) and HLA-A2^neg (C1R-A3) cells were stained with 1 μM blue peptide and incubated for 1h in the dark. After washing, baseline Cy5 staining was recorded for 30s, before adding excess of FACS buffer and recording fluorescence intensity (gMFI) for 1h under temperature control. Additionally, isotherm titration experiments were performed to validate the value of the blue peptide dissociation equilibrium constant KD. Cells were stained with titrated amounts of the blue peptide (from 1 pM to 1 uM) for 1h at 4°C or 37°C. After washing, Cy5 gMFI was recorded on an LSRII instrument to determine concentration-associated maximal staining at equilibrium conditions (n = 5). All kinetic and isotherm analyses were done with the corresponding best fit equations using Prism software (GraphPad, v.9.1.1) and correction of non-specific staining values found on control HLA-A2^neg cells (nonlinear regression for kon = association kinetics - one conc. of ligand, for koff = dissociation/one phase exponential decay and for KD = one site - total and nonspecific binding).

[1] = HLA-A2pos and HLA-A2neg cells in parallel, flow cytometry

FLPSDC*-(Cy5)-FPSV [blue peptide]
peptide:HLA association kon [1]: 23000 M⁻¹ s⁻¹
peptide:HLA dissociation koff [1]: 0.0012 s⁻¹
Kd (T2 (HLA-A2pos) vs C1R-A3 (HLA-A2neg) cells, isotherm titration 1 pM to 1 uM, 1h, n = 5, read-out: equilibrium dissociation constant KD for HLA-A2): 0.0526 µM
